In ChEMBL document CHEMBL4190397, “Design and Synthesis of Novel and Selective Glycine Transporter-1 (GlyT1) Inhibitors with Memory Enhancing Properties” (J Med Chem, 2018):

Legend:
[1] = molecular target: T1, Sodium- and chloride-dependent glycine transporter 1 (Rattus norvegicus, UniProt P28572); assay: Inhibition of GlyT1 in primary rat cortical neurons assessed as reduction in [14C]glycine uptake after 2 hrs by microbeta scintillation counting method
T1 sequence (P28572 whole entry): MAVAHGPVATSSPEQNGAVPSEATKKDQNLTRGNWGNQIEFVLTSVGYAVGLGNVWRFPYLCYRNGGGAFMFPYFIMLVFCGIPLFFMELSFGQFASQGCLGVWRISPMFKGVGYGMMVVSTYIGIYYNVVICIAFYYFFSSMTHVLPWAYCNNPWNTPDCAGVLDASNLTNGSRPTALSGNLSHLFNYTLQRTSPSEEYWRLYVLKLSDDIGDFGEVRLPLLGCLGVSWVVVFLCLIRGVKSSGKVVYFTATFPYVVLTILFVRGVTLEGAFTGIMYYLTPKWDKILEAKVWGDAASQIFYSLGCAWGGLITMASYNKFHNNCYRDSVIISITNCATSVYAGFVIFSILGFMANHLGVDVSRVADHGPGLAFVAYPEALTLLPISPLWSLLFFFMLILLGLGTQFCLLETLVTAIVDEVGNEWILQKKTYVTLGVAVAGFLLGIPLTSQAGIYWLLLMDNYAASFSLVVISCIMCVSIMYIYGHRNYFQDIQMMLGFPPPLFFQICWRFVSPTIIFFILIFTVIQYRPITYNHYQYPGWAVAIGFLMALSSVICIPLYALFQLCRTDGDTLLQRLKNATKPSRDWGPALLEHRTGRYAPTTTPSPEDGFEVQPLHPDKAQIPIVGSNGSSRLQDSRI

[2] = molecular target: Cytochrome P450 2C19 (Homo sapiens, UniProt P33261); assay: Inhibition of CYP2C19 in human liver microsomes using S-mephenytoin as substrate measured after 10 mins in presence of NADPH by LC-MS/MS analysis
[3] = Permeability of the compound at pH 7.4 at 100 uM after 60 mins by PAMPA-BBB assay
[4] = Intrinsic clearance in human liver microsomes at 1 uM assessed per mg protein at 37 degC up to 60 mins in presence of NADPH by HPLC-MS analysis; type: ADME, microsome; settings: read-out: CLH
[5] = molecular target: T2, Sodium- and chloride-dependent glycine transporter 1 (Homo sapiens, UniProt P48067); assay: Inhibition of recombinant human GlyT1c expressed in HEK293 cells assessed as reduction in [14C]glycine uptake after 2 hrs by microbeta scintillation counting method; type: cell-based
T2 sequence (P48067 whole entry): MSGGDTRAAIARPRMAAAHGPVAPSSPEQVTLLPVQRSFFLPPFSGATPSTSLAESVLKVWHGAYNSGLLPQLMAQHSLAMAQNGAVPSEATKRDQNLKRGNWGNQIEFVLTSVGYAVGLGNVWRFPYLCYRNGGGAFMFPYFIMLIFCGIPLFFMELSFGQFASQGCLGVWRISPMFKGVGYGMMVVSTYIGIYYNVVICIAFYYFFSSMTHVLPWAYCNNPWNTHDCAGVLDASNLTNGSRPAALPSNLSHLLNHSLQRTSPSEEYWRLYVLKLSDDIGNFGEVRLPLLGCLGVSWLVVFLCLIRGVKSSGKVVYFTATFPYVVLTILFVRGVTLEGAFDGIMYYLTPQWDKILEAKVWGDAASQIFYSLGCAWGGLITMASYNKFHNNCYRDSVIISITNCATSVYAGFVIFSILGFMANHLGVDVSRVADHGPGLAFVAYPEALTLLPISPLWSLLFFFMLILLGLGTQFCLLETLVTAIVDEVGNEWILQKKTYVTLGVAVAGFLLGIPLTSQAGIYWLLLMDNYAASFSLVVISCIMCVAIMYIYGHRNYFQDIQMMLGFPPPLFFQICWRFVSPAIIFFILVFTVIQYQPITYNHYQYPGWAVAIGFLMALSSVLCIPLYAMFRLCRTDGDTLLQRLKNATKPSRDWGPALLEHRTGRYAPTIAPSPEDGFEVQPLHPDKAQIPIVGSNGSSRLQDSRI

[6] = molecular target: Cytochrome P450 2D6 (Homo sapiens, UniProt P10635); assay: Inhibition of CYP2D6 in human liver microsomes using dextromethorphan as substrate measured after 10 mins in presence of NADPH by LC-MS/MS analysis
[7] = molecular target: Voltage-gated inwardly rectifying potassium channel KCNH2 (Homo sapiens, UniProt Q12809); assay: Inhibition of human ERG expressed in CHO cells at 10 nM to 10 uM at holding potential of -80 mV measured after 5 mins by QPatch automated patch clamp electrophysiology method
[8] = Apparent permeability from basolateral to apical side in MDCK-MDR1 cells monolayer at 5 uM after 60 mins by LC-MS/MS analysis; settings: dog
[9] = molecular target: T3, Cytochrome P450 1A2 (Homo sapiens, UniProt P05177); assay: Inhibition of CYP1A2 in human liver microsomes using phenacetin as substrate measured after 10 mins in presence of NADPH by LC-MS/MS analysis
T3 sequence (P05177 whole entry): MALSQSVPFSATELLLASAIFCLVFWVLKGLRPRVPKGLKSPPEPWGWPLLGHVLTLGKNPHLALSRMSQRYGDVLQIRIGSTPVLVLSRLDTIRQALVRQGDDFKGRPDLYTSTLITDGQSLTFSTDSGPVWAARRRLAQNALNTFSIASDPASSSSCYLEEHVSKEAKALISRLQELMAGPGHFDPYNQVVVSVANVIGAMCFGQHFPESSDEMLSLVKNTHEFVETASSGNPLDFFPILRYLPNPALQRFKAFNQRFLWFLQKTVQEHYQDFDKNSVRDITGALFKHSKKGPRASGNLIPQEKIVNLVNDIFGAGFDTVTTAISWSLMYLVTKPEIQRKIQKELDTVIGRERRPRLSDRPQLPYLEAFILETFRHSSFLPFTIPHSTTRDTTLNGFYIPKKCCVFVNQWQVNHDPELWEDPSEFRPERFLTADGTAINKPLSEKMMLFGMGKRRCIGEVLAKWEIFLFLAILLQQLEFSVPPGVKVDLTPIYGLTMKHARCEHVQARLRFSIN

[10] = molecular target: Cytochrome P450 3A4 (Homo sapiens, UniProt P08684); assay: Inhibition of CYP3A4 in human liver microsomes using midazolam as substrate measured after 7 mins in presence of NADPH by LC-MS/MS analysis
[11] = Intrinsic clearance in rat liver microsomes at 1 uM assessed per mg protein at 37 degC up to 30 mins in presence of NADPH by HPLC-MS analysis; type: ADME, microsome; settings: read-out: CLH
[12] = Efflux ratio of apparent permeability from basolateral to apical over apical to basolateral side in MDCK-MDR1 cells at 5 uM after 60 mins by LC-MS/MS analysis; settings: dog
[13] = molecular target: Cytochrome P450 2C9 (Homo sapiens, UniProt P11712); assay: Inhibition of CYP2C9 in human liver microsomes using diclofenac as substrate measured after 10 mins in presence of NADPH by LC-MS/MS analysis
Sequence of Cytochrome P450 2C9 (P11712 whole entry): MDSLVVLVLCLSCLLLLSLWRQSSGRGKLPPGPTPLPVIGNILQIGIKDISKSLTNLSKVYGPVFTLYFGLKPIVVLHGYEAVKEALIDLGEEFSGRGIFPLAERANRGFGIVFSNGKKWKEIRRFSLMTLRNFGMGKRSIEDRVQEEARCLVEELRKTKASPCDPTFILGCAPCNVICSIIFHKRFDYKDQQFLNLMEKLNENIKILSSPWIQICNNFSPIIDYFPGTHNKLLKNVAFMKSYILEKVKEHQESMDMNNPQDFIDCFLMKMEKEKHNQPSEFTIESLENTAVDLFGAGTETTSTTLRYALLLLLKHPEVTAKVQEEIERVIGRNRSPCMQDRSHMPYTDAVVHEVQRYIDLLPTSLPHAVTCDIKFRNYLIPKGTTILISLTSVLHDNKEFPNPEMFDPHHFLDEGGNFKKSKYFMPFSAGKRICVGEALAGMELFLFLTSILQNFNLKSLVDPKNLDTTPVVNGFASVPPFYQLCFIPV

Sequence of Cytochrome P450 2D6 (P10635 whole entry): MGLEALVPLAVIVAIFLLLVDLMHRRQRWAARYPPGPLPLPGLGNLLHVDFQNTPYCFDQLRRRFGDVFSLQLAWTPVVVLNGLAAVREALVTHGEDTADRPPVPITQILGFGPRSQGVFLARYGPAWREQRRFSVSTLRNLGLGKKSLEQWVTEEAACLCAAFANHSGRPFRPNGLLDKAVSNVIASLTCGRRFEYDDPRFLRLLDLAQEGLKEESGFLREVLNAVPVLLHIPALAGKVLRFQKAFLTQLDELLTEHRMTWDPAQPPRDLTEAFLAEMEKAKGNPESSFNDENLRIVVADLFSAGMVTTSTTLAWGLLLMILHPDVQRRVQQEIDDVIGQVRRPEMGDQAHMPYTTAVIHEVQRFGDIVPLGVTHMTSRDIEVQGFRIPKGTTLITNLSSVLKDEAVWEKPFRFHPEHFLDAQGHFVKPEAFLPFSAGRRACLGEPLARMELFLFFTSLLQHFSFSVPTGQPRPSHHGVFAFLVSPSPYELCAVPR
Sequence of Cytochrome P450 3A4 (P08684 whole entry): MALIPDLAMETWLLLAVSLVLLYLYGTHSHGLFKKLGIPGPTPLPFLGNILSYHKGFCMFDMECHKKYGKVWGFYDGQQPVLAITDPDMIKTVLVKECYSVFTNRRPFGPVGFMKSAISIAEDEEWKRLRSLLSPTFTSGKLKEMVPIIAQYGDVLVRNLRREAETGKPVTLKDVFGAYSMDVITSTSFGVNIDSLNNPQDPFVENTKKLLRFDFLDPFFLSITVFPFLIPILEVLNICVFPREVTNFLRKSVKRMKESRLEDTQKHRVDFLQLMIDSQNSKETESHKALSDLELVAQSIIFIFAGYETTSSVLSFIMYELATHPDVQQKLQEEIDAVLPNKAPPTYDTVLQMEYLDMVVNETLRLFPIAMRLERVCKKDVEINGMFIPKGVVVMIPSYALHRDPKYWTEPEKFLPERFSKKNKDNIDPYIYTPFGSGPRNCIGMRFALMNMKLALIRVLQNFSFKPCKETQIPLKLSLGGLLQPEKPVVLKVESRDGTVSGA
Sequence of Voltage-gated inwardly rectifying potassium channel KCNH2 (Q12809 whole entry): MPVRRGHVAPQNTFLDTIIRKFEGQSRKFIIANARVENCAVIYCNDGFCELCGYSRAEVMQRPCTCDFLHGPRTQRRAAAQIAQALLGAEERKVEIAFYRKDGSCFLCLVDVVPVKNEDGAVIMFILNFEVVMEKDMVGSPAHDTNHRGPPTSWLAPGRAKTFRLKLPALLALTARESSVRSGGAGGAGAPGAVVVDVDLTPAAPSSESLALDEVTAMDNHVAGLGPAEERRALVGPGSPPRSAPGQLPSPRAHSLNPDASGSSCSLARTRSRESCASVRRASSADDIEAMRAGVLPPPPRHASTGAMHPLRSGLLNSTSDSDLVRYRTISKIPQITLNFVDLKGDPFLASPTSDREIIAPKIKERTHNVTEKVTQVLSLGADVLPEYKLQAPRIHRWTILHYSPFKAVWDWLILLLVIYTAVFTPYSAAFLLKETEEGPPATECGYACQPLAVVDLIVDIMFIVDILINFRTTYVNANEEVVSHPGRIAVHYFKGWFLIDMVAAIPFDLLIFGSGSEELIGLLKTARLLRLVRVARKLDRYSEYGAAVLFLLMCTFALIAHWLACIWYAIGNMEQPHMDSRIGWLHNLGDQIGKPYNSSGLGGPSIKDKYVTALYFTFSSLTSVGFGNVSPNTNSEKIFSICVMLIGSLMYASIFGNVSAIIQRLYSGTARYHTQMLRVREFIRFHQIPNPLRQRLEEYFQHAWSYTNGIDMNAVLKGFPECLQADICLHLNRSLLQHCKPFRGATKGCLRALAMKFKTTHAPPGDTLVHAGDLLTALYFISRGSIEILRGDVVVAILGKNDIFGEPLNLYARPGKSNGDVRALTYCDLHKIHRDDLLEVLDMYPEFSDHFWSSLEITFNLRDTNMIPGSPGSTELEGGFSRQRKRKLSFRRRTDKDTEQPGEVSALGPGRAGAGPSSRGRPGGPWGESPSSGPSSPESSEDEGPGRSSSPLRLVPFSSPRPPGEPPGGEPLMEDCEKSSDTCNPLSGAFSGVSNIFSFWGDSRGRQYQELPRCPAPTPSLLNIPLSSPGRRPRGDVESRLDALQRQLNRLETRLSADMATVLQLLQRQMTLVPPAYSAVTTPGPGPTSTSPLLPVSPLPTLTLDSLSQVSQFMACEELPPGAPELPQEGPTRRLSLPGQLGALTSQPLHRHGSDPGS
Sequence of Cytochrome P450 2C19 (P33261 whole entry): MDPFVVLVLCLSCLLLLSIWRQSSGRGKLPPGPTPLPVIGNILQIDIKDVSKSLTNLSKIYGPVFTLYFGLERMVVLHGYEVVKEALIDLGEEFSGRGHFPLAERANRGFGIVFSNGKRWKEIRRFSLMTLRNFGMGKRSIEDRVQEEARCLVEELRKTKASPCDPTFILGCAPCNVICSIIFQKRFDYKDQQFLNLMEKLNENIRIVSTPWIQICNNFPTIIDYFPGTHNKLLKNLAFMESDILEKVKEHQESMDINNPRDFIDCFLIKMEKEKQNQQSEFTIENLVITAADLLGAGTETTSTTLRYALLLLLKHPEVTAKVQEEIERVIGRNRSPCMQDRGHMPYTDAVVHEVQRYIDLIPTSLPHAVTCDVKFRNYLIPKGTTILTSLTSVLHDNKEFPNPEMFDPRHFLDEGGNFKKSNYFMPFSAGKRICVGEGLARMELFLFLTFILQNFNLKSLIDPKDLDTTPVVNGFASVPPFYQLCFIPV

## C[C@H](Oc1ccc(C#N)cc1C(=O)N1Cc2cn(-c3ccccc3F)nc2C1)C(F)(F)F
[1]
  IC50: 0.108 µM
[2]
  IC50: > 10 µM
[3]
  Papp at 1 h, 100 µM: > 10 ×10⁻⁶ cm/s
[4]
  microsomal CLint at 1 µM: 13.5 µL/min/mg
[5]
  IC50: 0.078 µM
[6]
  IC50: > 10 µM
[7]
  IC50: > 10 µM
[8]
  Papp B→A at 1 h, 5 µM: 61.7 ×10⁻⁶ cm/s
[9]
  IC50: > 10 µM
[10]
  IC50: > 10 µM
[11]
  microsomal CLint at 1 µM: 451 µL/min/mg
[12]
  efflux ratio at 1 h, 5 µM: 1.1
[13]
  IC50: > 10 µM

## CS(=O)(=O)c1ccc(OCC2CC2)c(C(=O)N2Cc3cn(-c4ccccc4F)nc3C2)c1
[1]
  IC50: 0.028 µM
[2]
  IC50: > 10 µM
[3]
  Papp at 1 h, 100 µM: 77.9 ×10⁻⁶ cm/s
[4]
  microsomal CLint at 1 µM: 0.3 µL/min/mg
[5]
  IC50: 0.038 µM
[6]
  IC50: > 10 µM
[7]
  IC50: 9.9 µM
[8]
  Papp B→A at 1 h, 5 µM: 58.9 ×10⁻⁶ cm/s
[9]
  IC50: > 10 µM
[10]
  IC50: > 10 µM
[11]
  microsomal CLint at 1 µM: 5.3 µL/min/mg
[12]
  efflux ratio at 1 h, 5 µM: 2.4
[13]
  IC50: > 10 µM
